This test has as its target human wild type-CFTR (Homo sapiens, UniProt P13569). Briefly: Cell-based YFP assay. The arrangement: expressed in transfected cells; host or cells: CHO-K1 (Chinese hamster ovary). The settings on record: CHO-K1 cells expressing human wild type-CFTR and YFP-H148Q/I152L; forskolin 20 μM = 100% activity; read-out: Cell-based YFP Assay (EC50) Concentration Range. Here is the method:
Forskolin (Tocris cat. #1099), Dimethyl sulfoxide (Sigma cat. #D4540), FLUO star Omega microplate reader (BMG Labtech, Ortenberg, Germany), MARS Data Analysis Software (BMG Labtech), GraphPad Prism 5 (GraphPad Software, Inc.) Chinese hamster ovary (CHO-K1) cells expressing human wild type-CFTR and halide sensor YFP-H148Q/I152L were constructed and grown in Dulbecco's modified Eagle's medium (DMEM) supplemented with 10% FBS, 2 mM glutamine, 100 units/ml penicillin and 100 μg/ml streptomycin. Chinese hamster ovary (CHO-K1) cells expressing human wild type-CFTR and halide sensor YFP-H148Q/I152L were seeded in 96-well microplate with 2×10^4 cells/well and incubated in 37° C., 48 hours. Then, each well was washed 3 times with PBS and 100 μL PBS was added in each well. […] YFP fluorescence signal affected by I^− ion influx through CFTR channel was measured in 37° C., FLUO star Omega microplate reader according to the following steps: • i) basal 2 seconds; • ii) 140 mM I^− solution 100 μL addition to each well; • iii) YFP fluorescence signal measurement start after 6 seconds; and • iv) following 14 seconds signal detection in every 0.4 seconds periods. […] Experiments were performed in triplicates and the data was averaged. EC50 values were calculated with MARS Data Analysis Software (BMG Labtech) and GraphPad Prism 5.

The text below walks through data of patent publication US20240199623A1 (ILDONG PHARMACEUTICAL CO., LTD., priority 2020, published 2024).

pEC50: −log10 of the molar value.

Chain of human wild type-CFTR (P13569 whole entry): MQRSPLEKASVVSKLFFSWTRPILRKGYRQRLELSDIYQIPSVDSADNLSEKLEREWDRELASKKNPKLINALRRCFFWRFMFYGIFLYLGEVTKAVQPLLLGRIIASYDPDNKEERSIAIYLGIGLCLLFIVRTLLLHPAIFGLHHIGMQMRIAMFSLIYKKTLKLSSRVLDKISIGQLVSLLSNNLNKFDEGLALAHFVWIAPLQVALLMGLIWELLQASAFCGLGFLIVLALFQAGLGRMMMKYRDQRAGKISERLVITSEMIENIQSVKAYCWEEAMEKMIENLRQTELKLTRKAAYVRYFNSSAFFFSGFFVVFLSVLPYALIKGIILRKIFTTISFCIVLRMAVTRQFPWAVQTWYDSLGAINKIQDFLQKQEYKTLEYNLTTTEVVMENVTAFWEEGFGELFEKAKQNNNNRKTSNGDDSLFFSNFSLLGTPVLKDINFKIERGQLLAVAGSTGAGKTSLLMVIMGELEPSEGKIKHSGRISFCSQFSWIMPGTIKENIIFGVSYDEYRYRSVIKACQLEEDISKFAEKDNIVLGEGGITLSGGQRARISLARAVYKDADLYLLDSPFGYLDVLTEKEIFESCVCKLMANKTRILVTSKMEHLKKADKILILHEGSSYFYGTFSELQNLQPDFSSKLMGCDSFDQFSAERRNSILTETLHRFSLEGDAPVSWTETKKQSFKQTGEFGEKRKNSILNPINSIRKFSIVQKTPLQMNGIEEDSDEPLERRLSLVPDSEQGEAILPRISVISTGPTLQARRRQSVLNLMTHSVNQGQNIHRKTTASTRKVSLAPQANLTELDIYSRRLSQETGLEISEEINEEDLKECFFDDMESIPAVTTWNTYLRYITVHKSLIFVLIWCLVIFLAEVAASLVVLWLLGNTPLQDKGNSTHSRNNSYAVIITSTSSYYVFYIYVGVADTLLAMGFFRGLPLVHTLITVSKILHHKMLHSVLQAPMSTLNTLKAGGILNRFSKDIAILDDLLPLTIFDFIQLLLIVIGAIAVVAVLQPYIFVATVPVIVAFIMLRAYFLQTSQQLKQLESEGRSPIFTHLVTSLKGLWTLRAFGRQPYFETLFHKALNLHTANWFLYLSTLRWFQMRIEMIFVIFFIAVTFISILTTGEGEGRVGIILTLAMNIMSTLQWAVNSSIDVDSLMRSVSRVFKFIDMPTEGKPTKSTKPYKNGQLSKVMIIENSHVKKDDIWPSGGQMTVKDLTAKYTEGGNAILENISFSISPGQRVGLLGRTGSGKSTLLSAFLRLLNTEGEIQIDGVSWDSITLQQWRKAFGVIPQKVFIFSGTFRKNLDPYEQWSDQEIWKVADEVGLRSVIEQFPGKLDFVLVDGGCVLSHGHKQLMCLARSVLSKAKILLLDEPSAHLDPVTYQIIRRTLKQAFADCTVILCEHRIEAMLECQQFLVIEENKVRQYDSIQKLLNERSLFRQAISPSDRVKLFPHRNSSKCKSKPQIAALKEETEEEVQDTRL

`COc1ccc(-c2ccnc3cc(C(=O)NC(=Cc4ccccc4)C(=O)N4CCN(C)CC4)nn23)cc1OC` [Compound 134, 7-(3,4-dimethoxyphenyl)-N-(3-(4-methylpiperazin-1-yl)-3-oxo-1-phenylprop-1-en-2-yl)pyrazolo[1,5-a] pyrimidine-2-carboxamide]: the pEC50 is over 6.70.
Consider `COc1ccc(-c2ccnc3cc(C(=O)NC45CC(NC(=O)N6CCOCC6)(C4)C5)nn23)cc1OC` [Compound 138, N-(3-(7-(3,4-dimethoxyphenyl)pyrazolo[1,5-a]pyrimidine-2-carboxamido)bicyclo [1.1.1]pentan-1-yl)morpholine-4-carboxamide], for which the pEC50 was at most 5.70.
To `COc1ccc(-c2ccnc3cc(C(=O)N4CC[C@H](O)C4)nn23)cc1OC` [Compound 148, (S)-(7-(3,4-dimethoxyphenyl)pyrazolo[1,5-a]pyrimidin-2-yl)(3-hydroxypyrrolidin-1-yl)methanone] belongs at most 5.70; to `COc1ccc(-c2ccnc3cc(C(=O)N4CC[C@@H](O)C4)nn23)cc1OC` [Compound 150, (R)-(7-(3,4-dimethoxyphenyl)pyrazolo[1,5-a]pyrimidin-2-yl)(3-hydroxypyrrolidin-1-yl)methanone], at most 5.70; to `COc1ccc(-c2ccnc3cc(C(=O)N4CCN(c5ccccc5)CC4)nn23)cc1OC` [Compound 152, (7-(3,4-dimethoxyphenyl)pyrazolo[1,5-a]pyrimidin-2-yl)(4-phenylpiperazin-1-yl)methanone], 5.70 to 6.70.
To `COc1ccc(-c2ccnc3cc(C(=O)N4CCN(c5ccccn5)CC4)nn23)cc1OC` [Compound 153, (7-(3,4-dimethoxyphenyl)pyrazolo[1,5-a]pyrimidin-2-yl)(4-(pyridin-2-yl)piperazin-1-yl)methanone] belongs 5.70 to 6.70; to `COc1ccc(-c2ccnc3cc(C(=O)N4CCN(Cc5ccccc5)CC4)nn23)cc1OC` [Compound 154, (4-benzylpiperazin-1-yl) (7-(3,4-dimethoxyphenyl)pyrazolo [1,5-a]pyrimidin-2-yl)methanone], 5.70 to 6.70; to `COc1ccc(-c2ccnc3cc(C(=O)N4CCc5ccc(C(=O)O)cc5C4)nn23)cc1OC` [Compound 155, 2-(7-(3,4-dimethoxyphenyl)pyrazolo[1,5-a]pyrimidine-2-carbonyl)-1,2,3,4-tetrahydroisoquinoline-7-carboxylic acid], at most 5.70.
For `COc1ccc(-c2ccnc3cc(C(=O)Nc4ccc(C(=O)OCCCN5CCOCC5)c(Cl)c4)nn23)cc1OC` [Compound 162, 3-morpholinopropyl 2-chloro-4-(7-(3,4-dimethoxyphenyl)pyrazolo [1,5-a]pyrimidine-2-carboxamido)benzoate], the pEC50 is at most 5.70.
On to `COc1ccc(-c2ccnc3cc(C(=O)Nc4ccc(OC(=O)[C@@H](NC(=O)OCc5ccccc5)C(C)C)cc4)nn23)cc1OC` [Compound 171, 4-(7-(3,4-dimethoxyphenyl)pyrazolo[1,5-a]pyrimidine-2-carboxamido)phenyl ((benzyloxy)carbonyl)-L-valinate], for which the pEC50 is over 6.70.
To `COc1ccc(-c2ccnc3cc(C(=O)Nc4ccc(OC(=O)[C@@H](N)C(C)C)cc4)nn23)cc1OC` [Compound 172, 4-(7-(3,4-dimethoxyphenyl)pyrazolo[1,5-a]pyrimidine-2-carboxamido) phenyl L-valinate] belongs over 6.70; to `COc1ccc(-c2ccnc3cc(C(=O)Nc4ccc(C(=O)NCCCN5CCOCC5)cc4)nn23)cc1OC` [Compound 173, 7-(3,4-dimethoxyphenyl)-N-(4-((3-morpholinopropyl)carbamoyl)phenyl)pyrazolo [1,5-a]pyrimidine-2-carboxamide], over 6.70; to `COc1ccc(-c2ccnc3cc(C(=O)Nc4ccc(C(=O)N5CCOCC5)c(F)c4)nn23)cc1OC` [Compound 174, 7-(3,4-dimethoxyphenyl)-N-(3-fluoro-4-(morpholine-4-carbonyl)phenyl)pyrazolo[1,5-a]pyrimidine-2-carboxamide], over 6.70.
The value for `COc1ccc(-c2ccnc3cc(C(=O)Nc4ccc(C(=O)N5CCN(C)CC5)c(F)c4)nn23)cc1OC` [Compound 175, 7-(3,4-dimethoxyphenyl)-N-(3-fluoro-4-(4-methylpiperazine-1-carbonyl)phenyl)pyrazolo [1,5-a]pyrimidine-2-carboxamide] was over 6.70; that for `COc1ccc(-c2ccnc3cc(C(=O)Nc4ccc(C(=O)NCCCN5CCN(C)CC5)cc4)nn23)cc1OC` [Compound 177, 7-(3,4-dimethoxyphenyl)-N-(4-((3-(4-methylpiperazin-1-yl)propyl)carbamoyl)phenyl)pyrazolo[1,5-a]pyrimidine-2-carboxamide] was at most 5.70; that for `COc1ccc(-c2ccnc3cc(C(=O)N4CCN(C(C)C)CC4)nn23)cc1OC` [Compound 179, (7-(3,4-dimethoxyphenyl)pyrazolo[1,5-a]pyrimidin-2-yl)(4-isopropylpiperazin-1-yl)methanone] was at most 5.70.
For `COc1ccc(-c2ccnc3cc(C(=O)N4CCNC(=O)C4)nn23)cc1OC` [Compound 180, 4-(7-(3,4-dimethoxyphenyl)pyrazolo[1,5-a]pyrimidine-2-carbonyl) piperazin-2-one], the pEC50 was at most 5.70.
To `COc1ccc(-c2ccnc3cc(C(=O)N4CCN[C@@H](C)C4)nn23)cc1OC` [Compound 181, (S)-(7-(3,4-dimethoxyphenyl)pyrazolo[1,5-a]pyrimidin-2-yl)(3-methylpiperazin-1-yl)methanone] belongs at most 5.70; to `COc1ccc(-c2ccnc3cc(C(=O)N4CCNC(C)(C)C4)nn23)cc1OC` [Compound 182, (7-(3,4-dimethoxyphenyl)pyrazolo[1,5-a]pyrimidin-2-yl)(3,3-dimethylpiperazin-1-yl)methanone], at most 5.70.
To `COC(=O)c1ccc(N(C)C(=O)c2cc3nccc(-c4ccc(OC)c(OC)c4)n3n2)cc1` [Compound 183, methyl 4-(7-(3,4-dimethoxyphenyl)-N-methylpyrazolo[1,5-a]pyrimidine-2-carboxamido)benzoate] belongs 5.70 to 6.70; to `COc1ccc(-c2ccnc3cc(C(=O)N4CCN(C5CC5)CC4)nn23)cc1OC` [Compound 184, (4-cyclopropylpiperazin-1-yl)(7-(3,4-dimethoxyphenyl)pyrazolo [1,5-a]pyrimidin-2-yl)methanone], 5.70 to 6.70; to `COc1ccc(-c2ccnc3cc(C(=O)N4CCN(c5ncccn5)CC4)nn23)cc1OC` [Compound 185, (7-(3,4-dimethoxyphenyl)pyrazolo[1,5-a]pyrimidin-2-yl)(4-(pyrimidin-2-yl)piperazin-1-yl)methanone], 5.70 to 6.70.
The value for `COc1ccc(-c2ccnc3cc(C(=O)N4CC[C@@H](NC(=O)C5CCN(C)CC5)C4)nn23)cc1OC` [Compound 188, (R)-N-(1-(7-(3,4-dimethoxyphenyl)pyrazolo [1,5-a]pyrimidine-2-carbonyl)pyrrolidin-3-yl)-1-methylpiperidine-4-carboxamide] was at most 5.70.
In the case of `COc1ccc(-c2ccnc3cc(C(=O)Nc4ccc(C(=O)OCCCN5CCN(C)CC5)cn4)nn23)cc1OC` [Compound 189, 3-(4-methylpiperazin-1-yl) propyl 6-(7-(3,4-dimethoxyphenyl)pyrazolo [1,5-a]pyrimidine-2-carboxamido)nicotinate], the pEC50 was over 6.70.
To `COC(=O)c1ccc(NC(=O)c2cc3nccc(-c4ccc(OC)c(OC)c4)n3n2)cn1` [Compound 190, methyl 5-(7-(3,4-dimethoxyphenyl)pyrazolo [1,5-a]pyrimidine-2-carboxamido)picolinate] belongs 5.70 to 6.70; to `COC(=O)c1ccc(NC(=O)c2cc3nccc(-c4ccc(OC)c(OC)c4)n3n2)cc1C` [Compound 191, methyl 4-(7-(3,4-dimethoxyphenyl)pyrazolo [1,5-a]pyrimidine-2-carboxamido)-2-methylbenzoate], over 6.70.
To `COc1ccc(-c2ccnc3cc(C(=O)Nc4ccc(N5CCN(C)CC5)cc4)nn23)cc1OC` [Compound 193, 7-(3,4-dimethoxyphenyl)-N-(4-(4-methylpiperazin-1-yl)phenyl)pyrazolo[1,5-a]pyrimidine-2-carboxamide] belongs over 6.70.
Regarding `COc1ccc(-c2ccnc3cc(C(=O)Nc4ccc(C(=O)N5CCN(C)[C@@H](C)C5)cc4)nn23)cc1OC` [Compound 195, (S)-7-(3,4-dimethoxyphenyl)-N-(4-(3,4-dimethylpiperazine-1-carbonyl)phenyl)pyrazolo [1,5-a]pyrimidine-2-carboxamide], the pEC50 was 5.70 to 6.70.
To `COc1ccc(-c2ccnc3cc(C(=O)N[C@H]4CC[C@@H](C(=O)OCCCN5CCOCC5)CC4)nn23)cc1OC` [Compound 196, 3-morpholinopropyl (1s,4s)-4-(7-(3,4-dimethoxyphenyl)pyrazolo [1,5-a]pyrimidine-2-carboxamido)cyclohexane-1-carboxylate] belongs 5.70 to 6.70.
